Assays:
Assay in all cases: relative viability (nuclei count vs DMSO), 5 days (fraction); higher = more cells survive
Motesanib + Trametinib = compound: CC1(C)CNc2cc(NC(=O)c3cccnc3NCc3ccncc3)ccc21 [Motesanib] + CC(=O)Nc1cccc(-n2c(=O)n(C3CC3)c(=O)c3c(Nc4ccc(I)cc4F)n(C)c(=O)c(C)c32)c1 [Trametinib] (partner 0.02 µM)
How it was run: (§1)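 Relative viability is defined as nuclei in treated wells over nuclei in vehicle wells. Duplicate plates were run and medians reported. Lung cancer cell lines in 1536-well plates were dosed by pin tool one day after seeding, with one drug or with a fixed anchor-drug dose plus five library-drug doses (not always all listed) in √10 steps, and nuclei were counted after 5 days.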

Motesanib + Luminespib = compound: CC1(C)CNc2cc(NC(=O)c3cccnc3NCc3ccncc3)ccc21 [Motesanib] + CCNC(=O)c1noc(-c2cc(C(C)C)c(O)cc2O)c1-c1ccc(CN2CCOCC2)cc1 [Luminespib] (partner 0.01 µM)
How it was run: as §1

[1] = compound: C[C@@]1(C(=O)Nc2ccc(F)nc2)CCCN1c1nc(Nc2cc(C3CC3)n[nH]2)c2cccn2n1 + CS(=O)(=O)N1CCN(Cc2cc3nc(-c4cccc5[nH]ncc45)nc(N4CCOCC4)c3s2)CC1 [Pictilisib] (partner 1 µM)
How it was run: as §1

[2] = compound: C[C@@]1(C(=O)Nc2ccc(F)nc2)CCCN1c1nc(Nc2cc(C3CC3)n[nH]2)c2cccn2n1 + O=C(c1cc(Cc2n[nH]c(=O)c3ccccc23)ccc1F)N1CCN(C(=O)C2CC2)CC1 [Olaparib] (partner 8 µM)
How it was run: as §1

Row | Cell Line | relative viability (Motesanib + Trametinib; first compound 0.01 µM) | relative viability (Motesanib + Trametinib; first compound 0.03162 µM) | relative viability (Motesanib + Trametinib; first compound 0.1 µM) | relative viability (Motesanib + Trametinib; first compound 0.3162 µM) | relative viability (Motesanib + Trametinib; first compound 1 µM) | relative viability (Motesanib + Luminespib; first compound 0.01 µM) | relative viability (Motesanib + Luminespib; first compound 0.03162 µM) | relative viability (Motesanib + Luminespib; first compound 0.1 µM) | relative viability (Motesanib + Luminespib; first compound 0.3162 µM) | relative viability (Motesanib + Luminespib; first compound 1 µM) | relative viability ([1]; first compound 0.04 µM) | relative viability ([1]; first compound 0.1265 µM) | relative viability ([1]; first compound 0.4 µM) | relative viability ([1]; first compound 1.265 µM) | relative viability ([2]; first compound 0.04 µM) | relative viability ([2]; first compound 0.1265 µM) | relative viability ([2]; first compound 0.4 µM) | relative viability ([2]; first compound 1.265 µM)
1 | NCI-H460 | 0.139 | 0.104 | 0.209 | 0.179 | 0.142 | 0.0344 | 0.0382 | 0.0342 | 0.0458 | 0.0311 | 0.299 | 0.202 | 0.184 | 0.236 | 0.495 | 0.334 | 0.346 | 0.23
2 | NCI-H520 | 0.516 | 0.561 | 0.68 | 0.655 | 0.627 | 0.22 | 0.276 | 0.27 | 0.196 | 0.242 | 0.317 | 0.298 | 0.284 | 0.361 | 0.334 | 0.33 | 0.298 | 0.291
3 | NCI-H596 | 0.68 | 0.918 | 0.761 | 0.798 | 0.958 | 1.17 | 0.917 | 1.07 | 0.988 | 0.871 | 0.378 | 0.349 | 0.335 | 0.316 | 0.714 | 0.697 | 0.608 | 0.571
4 | NCI-H647 | 0.452 | 0.533 | 0.42 | 0.427 | 0.491 | 0.122 | 0.144 | 0.387 | 0.165 | 0.216 | 0.443 | 0.24 | 0.334 | 0.348 | 0.607 | 0.487 | 0.368 | 0.505
5 | NCI-H650 | 0.916 | 1.07 | 0.946 | 1.02 | 1.06 | 0.788 |  | 0.81 | 0.837 | 0.801 | 0.916 | 0.651 | 0.689 | 0.722 | 0.372 | 0.326 | 0.281 | 0.237
6 | NCI-H661 | 0.485 | 0.547 | 0.606 | 0.547 | 0.571 | 0.912 | 0.968 | 0.948 | 0.952 | 0.901 | 0.432 | 0.355 | 0.408 |  | 0.742 | 0.849 | 0.778 | 0.634
7 | NCI-H727 | 0.381 | 0.363 | 0.385 | 0.379 | 0.354 | 0.292 | 0.261 | 0.729 | 0.332 | 0.352 | 0.328 | 0.179 | 0.306 | 0.155 | 0.746 | 0.506 | 0.476 | 0.416
8 | NCI-H838 | 0.494 | 0.568 | 0.507 | 0.544 | 0.529 | 0.316 | 0.295 | 0.355 | 0.286 | 0.216 | 0.514 | 0.379 | 0.263 | 0.365 | 0.726 | 0.636 | 0.555 | 0.388
9 | NCI-H1355 | 0.398 | 0.473 | 0.463 | 0.4 | 0.459 | 0.719 | 0.659 | 0.658 | 0.77 | 0.637 | 0.428 | 0.462 | 0.332 | 0.439 | 0.661 | 0.59 | 0.561 | 0.572
10 | NCI-H1395 | 0.98 | 0.977 | 1.06 | 1.04 | 1.19 | 0.662 | 0.665 | 0.65 | 0.876 | 0.866 | 0.664 | 0.436 | 0.761 | 0.788 | 0.505 | 0.437 | 0.408 | 0.497
11 | NCI-H1437 | 0.587 | 0.471 | 0.529 | 0.492 | 0.518 | 1.13 | 1.07 | 1.08 | 1.1 | 1.15 | 0.271 | 0.295 | 0.248 | 0.363 | 0.666 | 0.631 | 0.576 | 0.59
12 | NCI-H1650 | 0.684 | 0.531 | 0.636 | 0.547 | 0.623 | 0.181 | 0.179 | 0.185 | 0.19 | 0.2 | 0.561 | 0.489 | 0.533 | 0.403 | 0.692 | 0.846 | 0.678 | 0.729
13 | NCI-H1651 | 0.817 | 0.796 | 0.777 | 0.849 | 0.847 | 0.673 | 0.89 | 0.8 | 0.921 | 0.892 | 0.484 | 0.447 | 0.39 | 0.538 | 0.2 | 0.183 | 0.196 | 0.201
14 | NCI-H1666 | 0.736 | 0.904 | 0.905 | 0.858 | 0.838 | 1.05 | 0.978 | 0.991 | 0.999 | 0.977 | 0.364 | 0.378 | 0.447 | 0.38 | 0.707 | 0.73 | 0.713 | 0.724
15 | NCI-H1734 | 0.6 | 0.625 | 0.644 | 0.676 | 0.723 | 0.161 | 0.188 |  | 0.199 | 0.201 | 0.381 | 0.301 | 0.321 | 0.296 | 0.506 | 0.405 | 0.385 | 0.436
16 | NCI-H1755 | 0.782 | 0.765 | 0.799 | 0.85 | 0.831 | 0.492 | 0.505 | 0.353 | 0.445 | 0.315 | 0.481 | 0.241 | 0.307 | 0.381 | 0.93 | 0.73 | 0.759 | 0.851
17 | NCI-H1792 | 0.511 | 0.37 | 0.43 | 0.528 | 0.442 | 0.447 | 0.428 | 0.406 | 0.501 | 0.466 | 0.257 | 0.266 | 0.201 | 0.318 | 0.194 | 0.175 | 0.0767 | 0.161
